Literature values, collected in patent publication US20060036094A1 (priority 2004, published 2006).

System: phorbol myristate-induced inflammation

In the case of zoanthamine, the “inhibitory activity toward phorbol myristate-induced inflammation” value is listed as “potent inhibitory activity”.
